In test [1] the test system is Candida albicans. Briefly: In vitro antifungal activity against Candida albicans CY1002 in the presence of 80% calf serum. The class given is functional, organism-based.
Test [2] deals with Candida albicans. As to the kind of experiment: In vitro antifungal activity against Candida albicans […] in the absence of 80% calf serum. The class given is functional, organism-based.
The target in a further test is Beta-1,3-glucan synthase (Candida albicans, UniProt O13428). Briefly: Inhibition of 1,3-beta-D-glucan synthase (GS) from candida albicans.
A short description of test [3]: Hepatotoxicity using isolated ICR mouse hepatocytes by inclusion body formation assay (In Vitro). Type of test: functional, cell-based. The note with it: Hepatocyte.
A further test deals with Mus musculus. Briefly: In vivo antifungal activity against systemic candidiasis in mouse model after a single iv administration. The class given is functional.
Test [4] can be described thus: Hepatotoxicity determined using isolated ICR mouse hepatocytes by inclusion body formation assay (In Vitro). The class given is functional, cell-based. The conditions noted are these: Hepatocyte.

In brackets after ≈: the same amount, converted by molar mass. Where only a bound is given, the exact number is not on record here.

Beta-1,3-glucan synthase, sequence (O13428 whole entry): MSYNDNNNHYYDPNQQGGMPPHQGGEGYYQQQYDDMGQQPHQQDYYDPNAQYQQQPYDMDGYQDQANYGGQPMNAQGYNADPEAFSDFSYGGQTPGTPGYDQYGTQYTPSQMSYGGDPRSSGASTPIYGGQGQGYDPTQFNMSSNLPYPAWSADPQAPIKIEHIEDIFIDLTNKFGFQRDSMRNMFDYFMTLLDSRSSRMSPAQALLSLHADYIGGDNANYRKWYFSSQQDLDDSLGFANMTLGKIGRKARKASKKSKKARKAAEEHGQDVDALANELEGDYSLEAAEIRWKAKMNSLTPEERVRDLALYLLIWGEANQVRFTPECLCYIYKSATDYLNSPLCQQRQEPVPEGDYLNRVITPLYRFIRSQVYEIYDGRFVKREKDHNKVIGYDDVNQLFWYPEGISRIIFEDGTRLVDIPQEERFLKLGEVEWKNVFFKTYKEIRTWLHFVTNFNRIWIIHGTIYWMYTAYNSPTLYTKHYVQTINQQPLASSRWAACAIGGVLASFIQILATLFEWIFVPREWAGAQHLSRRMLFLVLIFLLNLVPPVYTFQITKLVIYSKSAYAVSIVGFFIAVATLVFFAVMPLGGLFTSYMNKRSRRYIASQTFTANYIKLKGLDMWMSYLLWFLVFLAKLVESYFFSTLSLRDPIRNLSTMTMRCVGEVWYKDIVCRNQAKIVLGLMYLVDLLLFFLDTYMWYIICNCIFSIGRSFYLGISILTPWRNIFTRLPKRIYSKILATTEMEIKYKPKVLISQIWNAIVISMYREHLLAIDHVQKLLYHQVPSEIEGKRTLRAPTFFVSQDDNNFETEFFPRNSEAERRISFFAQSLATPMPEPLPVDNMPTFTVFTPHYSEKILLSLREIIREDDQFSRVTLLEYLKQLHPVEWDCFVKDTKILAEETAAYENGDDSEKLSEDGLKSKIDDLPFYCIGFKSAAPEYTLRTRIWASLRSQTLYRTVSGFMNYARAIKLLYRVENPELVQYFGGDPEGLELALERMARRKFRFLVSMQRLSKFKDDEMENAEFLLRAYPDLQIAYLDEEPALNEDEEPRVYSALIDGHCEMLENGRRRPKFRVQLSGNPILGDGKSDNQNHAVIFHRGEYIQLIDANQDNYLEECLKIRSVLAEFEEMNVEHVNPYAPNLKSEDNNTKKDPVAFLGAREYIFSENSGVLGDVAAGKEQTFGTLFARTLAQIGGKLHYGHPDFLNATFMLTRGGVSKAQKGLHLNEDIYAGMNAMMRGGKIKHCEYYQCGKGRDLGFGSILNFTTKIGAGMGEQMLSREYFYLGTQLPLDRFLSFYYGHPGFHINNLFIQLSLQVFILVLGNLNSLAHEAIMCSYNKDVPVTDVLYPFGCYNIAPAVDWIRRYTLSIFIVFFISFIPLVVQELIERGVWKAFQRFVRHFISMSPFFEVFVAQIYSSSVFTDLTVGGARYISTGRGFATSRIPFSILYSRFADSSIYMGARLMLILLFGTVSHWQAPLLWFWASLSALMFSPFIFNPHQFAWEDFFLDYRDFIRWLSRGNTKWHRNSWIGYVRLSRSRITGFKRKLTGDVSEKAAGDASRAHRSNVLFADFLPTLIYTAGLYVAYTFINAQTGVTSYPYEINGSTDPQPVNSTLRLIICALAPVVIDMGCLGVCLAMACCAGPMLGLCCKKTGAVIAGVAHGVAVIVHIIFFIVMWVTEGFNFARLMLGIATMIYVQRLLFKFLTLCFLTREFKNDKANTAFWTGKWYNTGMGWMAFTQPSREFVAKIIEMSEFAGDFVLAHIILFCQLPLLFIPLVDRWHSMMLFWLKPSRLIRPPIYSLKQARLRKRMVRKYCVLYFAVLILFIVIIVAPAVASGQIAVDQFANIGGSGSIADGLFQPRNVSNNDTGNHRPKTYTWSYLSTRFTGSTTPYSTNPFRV

As for `CCCCCCCCCCCCC[C@@H]1CC(=O)N[C@@H]([C@@H](C)O)C(=O)N[C@H](C)C(=O)N[C@@H](Cc2ccc(O)cc2)C(=O)N[C@@H](C(C)C)C(=O)N2C[C@H](O)C[C@H]2C(=O)N[C@@H]([C@@H](C)O)C(=O)N[C@@H]([C@@H](C)O)C(=O)N2CC[C@H](O)[C@H]2C(=O)N[C@@H]([C@H](O)CCN)C(=O)NCC(=O)N[C@@H]([C@@H](C)O)C(=O)N[C@@H](CCN)C(=O)O1`, the IC50 (usually the concentration that inhibits the measured activity by half) was determined as 0.18 µg/mL in the test with Candida albicans [1], 0.01 µg/mL (≈ 0.00664 µM) in the test on Candida albicans [2], 6 nM against Beta-1,3-glucan synthase and 10 µg/mL (≈ 6.64 µM) in test [3]. In addition, the 50% effect level with Mus musculus (ED50) was put at a dose of 0.04 mg/kg.

Regarding `CCCCCCCCCCCCC[C@@H]1CC(=O)N[C@@H]([C@@H](C)O)C(=O)N[C@H](C)C(=O)N[C@@H](Cc2ccc(O)cc2)C(=O)N[C@@H](C(C)C)C(=O)N2C[C@H](O)C[C@H]2C(=O)N[C@@H]([C@@H](C)O)C(=O)N[C@@H]([C@@H](C)O)C(=O)N2CC[C@H](O)[C@H]2C(=O)N[C@@H]([C@H](O)CC(N)=O)C(=O)NCC(=O)N[C@@H]([C@@H](C)O)C(=O)N[C@@H](CCCN)C(=O)O1`, the IC50 in the test on Candida albicans [1] is 0.57 µg/mL; in the test with Candida albicans [2], 0.02 µg/mL (≈ 0.013 µM); against Beta-1,3-glucan synthase it was 12 nM; in test [3], 10 µg/mL (≈ 6.52 µM).

`CCCCCCCCCCCCC[C@@H]1CC(=O)N[C@@H]([C@@H](C)O)C(=O)N[C@H](C)C(=O)N[C@@H](Cc2ccc(O)cc2)C(=O)N[C@@H](C(C)C)C(=O)N2C[C@H](O)C[C@H]2C(=O)N[C@@H]([C@@H](C)O)C(=O)N[C@@H]([C@@H](C)O)C(=O)N2CC[C@H](O)[C@H]2C(=O)N[C@@H]([C@H](O)CC(N)=O)C(=O)NCC(=O)N[C@@H]([C@@H](C)O)C(=O)N[C@@H](CCCNC(=O)OC(C)(C)C)C(=O)O1`: the 50% effect level in the test on Mus musculus (ED50) was put at a dose of 0.22 mg/kg.

For the molecule `CCCCCCCCCCCCC[C@@H]1CC(=O)N[C@@H]([C@@H](C)O)C(=O)N[C@H](C)C(=O)N[C@@H](Cc2ccc(O)cc2)C(=O)N[C@@H](C(C)C)C(=O)N2C[C@H](O)C[C@H]2C(=O)N[C@@H]([C@@H](C)O)C(=O)N[C@@H]([C@@H](C)O)C(=O)N2CC[C@H](O)[C@H]2C(=O)N[C@@H]([C@H](O)CC(N)=O)C(=O)NCC(=O)N[C@@H]([C@@H](C)O)C(=O)N[C@@H](CCCNC(=O)C(N)CCCN)C(=O)O1` (some centres not stated), the IC50 turned out to be 0.47 µg/mL in the test on Candida albicans [1], 0.08 µg/mL (≈ 0.0485 µM) in the test with Candida albicans [2], 8 nM on Beta-1,3-glucan synthase and 10 µg/mL (≈ 6.07 µM) in test [3]. Moreover, the 50% effect level in the test with Mus musculus (ED50) was put at a dose of 0.2 mg/kg.

`CCCCCCCCCCCCC[C@@H]1CC(=O)N[C@@H]([C@@H](C)O)C(=O)N[C@H](C)C(=O)N[C@@H](Cc2ccc(O)cc2)C(=O)N[C@@H](C(C)C)C(=O)N2C[C@H](O)C[C@H]2C(=O)N[C@@H]([C@@H](C)O)C(=O)N[C@@H]([C@@H](C)O)C(=O)N2CC[C@H](O)[C@H]2C(=O)N[C@@H]([C@H](O)CC(N)=O)C(=O)NCC(=O)N[C@H]([C@@H](C)O)C(=O)N[C@@H](CCCNC(=O)CN)C(=O)O1` yielded an IC50 on Beta-1,3-glucan synthase of 20 nM.

With `CCCCCCCCCCCCC[C@@H]1CC(=O)N[C@@H]([C@@H](C)O)C(=O)N[C@H](C)C(=O)N[C@@H](Cc2ccc(OC)cc2)C(=O)N[C@@H](C(C)C)C(=O)N2C[C@H](O)C[C@H]2C(=O)N[C@@H]([C@@H](C)O)C(=O)N[C@@H]([C@@H](C)O)C(=O)N2CC[C@H](O)[C@H]2C(=O)N[C@@H]([C@H](O)CC(N)=O)C(=O)NCC(=O)N[C@@H]([C@@H](C)O)C(=O)N[C@@H](CCCN)C(=O)O1`, the half-maximal inhibitory concentration (IC50) at Beta-1,3-glucan synthase came out at 24 nM.

`CCCCCCCCCCCCC[C@@H]1CC(=O)N[C@@H]([C@H](C)O)C(=O)N[C@H](C)C(=O)N[C@@H](Cc2ccc(O)cc2)C(=O)N[C@@H](C(C)C)C(=O)N2C[C@H](O)C[C@H]2C(=O)N[C@@H]([C@@H](C)O)C(=O)N[C@@H]([C@@H](C)O)C(=O)N2CC[C@H](O)[C@H]2C(=O)N[C@@H]([C@H](O)CC(N)=O)C(=O)NCC(=O)N[C@@H]([C@@H](C)O)C(=O)N[C@@H](CCCNC(C)=O)C(=O)O1` had an IC50 on Beta-1,3-glucan synthase of 230 nM.

For the molecule `CCCCCCCCCCCCC[C@@H]1CC(=O)N[C@@H]([C@@H](C)O)C(=O)N[C@H](C)C(=O)N[C@@H](Cc2ccc(O)cc2)C(=O)N[C@@H](C(C)C)C(=O)N2C[C@H](O)C[C@H]2C(=O)N[C@@H]([C@@H](C)O)C(=O)N[C@@H]([C@@H](C)O)C(=O)N2CC[C@H](O)[C@H]2C(=O)N[C@@H]([C@H](O)CC#N)C(=O)NCC(=O)N[C@@H]([C@@H](C)O)C(=O)N[C@@H](CCN)C(=O)O1`, the IC50 at Beta-1,3-glucan synthase was 19 nM.

Turning to `CCCCCCCCCCCCC[C@@H]1CC(=O)N[C@@H]([C@@H](C)O)C(=O)N[C@H](C)C(=O)N[C@@H](Cc2ccc(O)cc2)C(=O)N[C@@H](C(C)C)C(=O)N2C[C@H](O)C[C@H]2C(=O)N[C@@H]([C@@H](C)O)C(=O)N[C@@H]([C@@H](C)O)C(=O)N2CC[C@H](O)[C@H]2C(=O)N[C@@H]([C@H](O)CC(N)=O)C(=O)NCC(=O)N[C@@H]([C@@H](C)O)C(=O)N[C@H](CCCNC(=O)C(N)CCCN)C(=O)O1` (some centres not stated), the 50% inhibitory concentration (IC50) in the test on Candida albicans [1] was 0.33 µg/mL; in the test with Candida albicans [2], 0.12 µg/mL (≈ 0.0728 µM); against Beta-1,3-glucan synthase, 5 nM; in test [3], 30 µg/mL (≈ 18.2 µM). Also, in the test with Mus musculus, the ED50 (in general, the dose at which the effect has come halfway, by size or by number of responders) worked out at 0.1 mg/kg.

`CCCCCCCCCCCCC[C@@H]1CC(=O)N[C@@H]([C@@H](C)O)C(=O)N[C@H](C)C(=O)N[C@@H](Cc2ccc(O)cc2)C(=O)N[C@@H](C(C)C)C(=O)N2C[C@H](O)C[C@H]2C(=O)N[C@@H]([C@@H](C)O)C(=O)N[C@@H]([C@@H](C)O)C(=O)N2CC[C@H](O)[C@H]2C(=O)N[C@@H]([C@H](O)CC(N)=O)C(=O)NCC(=O)N[C@@H]([C@@H](C)O)C(=O)N[C@@H](CCCO)C(=O)O1` returned an IC50 against Beta-1,3-glucan synthase of over 520 nM.

In the case of `CCCCCCCCCCCCC[C@@H]1CC(=O)N[C@@H]([C@@H](C)O)C(=O)N[C@H](C)C(=O)N[C@@H](Cc2ccc(O)cc2)C(=O)N[C@@H](C(C)C)C(=O)N2C[C@H](O)C[C@H]2C(=O)N[C@@H]([C@@H](C)O)C(=O)N[C@@H]([C@@H](C)O)C(=O)N2CC[C@H](O)[C@H]2C(=O)N[C@@H]([C@H](O)CC(N)=O)C(=O)NCC(=O)N[C@@H]([C@@H](C)O)C(=O)N[C@@H](CCCN(C)C)C(=O)O1`, the IC50 at Beta-1,3-glucan synthase worked out at 45 nM.

Turning to `CCCCCCCCCCCCC[C@@H]1CC(=O)N[C@@H]([C@H](C)O)C(=O)N[C@H](C)C(=O)N[C@@H](Cc2ccc(OCc3ccccc3)cc2)C(=O)N[C@@H](C(C)C)C(=O)N2C[C@H](O)C[C@H]2C(=O)N[C@H]([C@@H](C)O)C(=O)N[C@@H]([C@@H](C)O)C(=O)N2CC[C@H](O)[C@H]2C(=O)N[C@@H]([C@H](O)CC(N)=O)C(=O)NCC(=O)N[C@@H]([C@@H](C)O)C(=O)N[C@@H](CCCN)C(=O)O1`, the IC50 against Beta-1,3-glucan synthase is over 130 nM.

For the molecule `CCCCCCCCCCCCC[C@@H]1CC(=O)N[C@@H]([C@@H](C)O)C(=O)N[C@H](C)C(=O)N[C@@H](Cc2ccc(O)cc2)C(=O)N[C@@H](C(C)C)C(=O)N2C[C@H](O)C[C@H]2C(=O)N[C@@H]([C@@H](C)O)C(=O)N[C@@H]([C@@H](C)O)C(=O)N2CC[C@H](O)[C@H]2C(=O)N[C@@H]([C@H](O)CC(N)=O)C(=O)NCC(=O)N[C@H]([C@@H](C)O)C(=O)N[C@@H](CCCN(CCN)CCN)C(=O)O1`, the IC50 with Candida albicans [1] is 0.42 µg/mL; with Candida albicans [2], 0.1 µg/mL (≈ 0.0617 µM); against Beta-1,3-glucan synthase it was 2 nM; in test [4], 10 µg/mL (≈ 6.17 µM). Moreover, the ED50 in the test with Mus musculus was determined as 0.05 mg/kg.

The values are drawn from ChEMBL document CHEMBL1134747, “Synthesis and antifungal activities of novel 1,3-beta-D-glucan synthase inhibitors. Part 1” (Bioorg Med Chem Lett, 2001).
